Assay results as given in patent publication US7321059B2, “Compounds for use as surfactants” (Glaxo Group Limited, priority 2001, dated 2008).

Columns and labels:
[1] = Content uniformity by dose through use testing of salmeterol xinafoate HFA 134a MDI formulations; assay type: physicochemical; settings: salmeterol xinafoate 25 mcg per actuation in HFA 134a
Experimental: Salmeterol xinafoate formulations in HFA 134a, of strength 25 mcg per actuation, and 10% w/w (relative to drug) of the relevant surfactant compound of formula (I) (i.e. Example 3 or Example 4) prepared in aluminum cans with a crimped cap containing a metering valve using salmeterol xinafoate (8.7 mg), HFA 134a (18 g) and the relevant compound (0.87 mg). The control was prepared without the addition of a surfactant. The content uniformity of the formulations was assessed by dose through use testing. Testing was performed on a set of 10 cans/inhalers for each of the formulations, at “beginning of use” (BoU) and “end of use” (EoU). After each inhaler had been primed (4 shots fired to waste), actuations 1 and 2 (BoU) were collected. The next 116 actuations of each inhaler were then fired to waste using an automated method and actuations 119 and 120 (EoU) collected.
In the control there was a rise from beginning to end of use of 5.6 mcg. However, in the presence of the said surfactant compound this rise was reduced to 1.4 mcg for formulations incorporating a compound of Example 3 and 2.8 mcg for formulations incorporating a compound of Example 4. There was also a reduction in the percentage RSD at BoU for the formulations incorporating said surfactant compounds, thereby showing improved can to can reproducibility. Furthermore, there was also a reduction in the percentage RSD at EoU for the formulations incorporating Example 4. The presence of the said surfactants therefore improves the content uniformity of the inhaler.

[2] = Deposition of drug on valve and can of salmeterol xinafoate HFA 134a MDI formulations (HPLC); assay type: physicochemical; settings: salmeterol xinafoate 1.50 mg in HFA 134a 3 g, surfactant 0.15 mg (10% w/w relative to drug)
Experimental: Salmeterol xinafoate formulations in HFA 134a, strength 25 mcg per dose for each of 60 actuations, and 10% w/w (relative to drug) of the relevant surfactant compound of formula (I) (i.e. Example 3 or Example 4) were prepared in aluminum cans with a crimped cap containing a metering valve using salmeterol xinafoate (1.50 mg), HFA 134a (3 g) and the relevant compound (0.15 mg). The control was prepared without the addition of a surfactant.
Cans containing the said formulations for analysis were cooled to […] to liquefy the propellant therein. These were then opened and the contents collected in a vessel. The valve and the empty can were quantitatively washed. The washings for each component were kept separate. The amount of drug in: the contents removed from the can, the valve washings and the can washing was quantified by HPLC analysis.
Therefore, the presence of said surfactants in formulations seems to reduce the deposition of the drug on the can and valve.

COCCOCCOCCOCCCOCC(OCCCOCCOCCOCCOC)C(=O)O (centres unmarked) [Example 3, 17-(4,7,10,13-Tetraoxatetradec-1-yloxy)-2,5,8,11,15-pentaoxaoctadecan-18-oic acid]
BoU Dose % RSD ([1]; can to can reproducibility at beginning of use, 10% w/w surfactant, 10 cans): 0.7% | EoU Dose % RSD ([1]; can to can reproducibility at end of use, 10% w/w surfactant, 10 cans): 13.9% | EoU − BoU (rise in dose from beginning to end of use) ([1]; 10% w/w surfactant relative to drug): 1.4 µg | BoU Dose ([1]; 10% w/w surfactant relative to drug, beginning of use, actuations 1 and 2, 10 cans): 15.8 µg | EoU Dose ([1]; 10% w/w surfactant relative to drug, end of use, actuations 119 and 120, 10 cans): 17.2 µg | Can Deposition ([2]; aluminum can): 0.25 mg | Valve Deposition ([2]; aluminum can): 0.33 mg | Drug Content In Can ([2]; contents removed from can): 0.56 mg
